Laboratory results as given in US20150105252A1, “SUBSTITUTED PYRAZOLES AS HERBICIDES” (E I DU PONT DE NEMOURS AND COMPANY, priority 2013, published 2015).

Assays:
barnyardgrass [1] = experiment: Test A preemergence; type: in vivo, Echinochloa crus-galli; settings: preemergence; for Barnyardgrass plant response rating (0 to 100 scale, 0 is no effect, 100 is complete control): visual injury approx. 10 days after treatment
How it was run: (§1)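 Injury readout: eye-scored versus untreated controls, 0 to 100. Exposure period: ~10 days, greenhouse. Application: soil-directed spray over sown seed (pre) or spray on seedlings 2–10 cm tall with one or two leaves (post), compound carried in non-phytotoxic solvent including surfactant.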

wheat [2] = experiment: Test A preemergence; type: in vivo, Triticum aestivum; settings: preemergence; for Wheat plant response rating (0 to 100 scale): 125 g ai/ha, visual injury approx. 10 days after treatment; for Wheat plant response rating: 500 g ai/ha, visual injury after approx. 10 days, 0 to 100 scale (0 no effect, 100 complete control)
How it was run: as §1

pigweed [3] = experiment: Test A postemergence; type: in vivo, Amaranthus retroflexus
How it was run: as §1

pigweed [4] = experiment: Test A preemergence; type: in vivo, Amaranthus retroflexus; settings: preemergence; for Pigweed plant response rating (0 to 100 scale): 125 g ai/ha, visual injury approx. 10 days after treatment; for Pigweed plant response rating: 500 g ai/ha, visual injury after approx. 10 days, 0 to 100 scale (0 no effect, 100 complete control)
How it was run: as §1

rice = experiment: Test B flood; type: in vivo, Oryza sativa; settings: 250 g ai/ha, visual rating on 0 to 100 scale (0 no effect, 100 complete control), 13 to 15 days
How it was run: (§2)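 Greenhouse assay lasting 13 to 15 days. Treatment was into water flooding pots 3 cm deep, at the 2-leaf stage, with that level sustained afterwards. Scores compare treated with control plants visually, 100 denoting complete control and 0 no effect; a dash marks no test result.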

corn [5] = experiment: Test A postemergence; type: in vivo, Zea mays
How it was run: as §1

barnyardgrass [6] = experiment: Test B flood; type: in vivo, Echinochloa crus-galli; settings: 250 g ai/ha, visual rating on 0 to 100 scale (0 no effect, 100 complete control), 13 to 15 days
How it was run: as §2

foxtail, giant [7] = experiment: Test A postemergence; type: in vivo, Setaria faberii
How it was run: as §1

barnyardgrass [8] = experiment: Test A postemergence; type: in vivo, Echinochloa crus-galli
How it was run: as §1

wheat [9] = experiment: Test A postemergence; type: in vivo, Triticum aestivum
How it was run: as §1

corn [10] = experiment: Test A preemergence; type: in vivo, Zea mays; settings: preemergence; for Corn plant response rating (0 to 100 scale): 125 g ai/ha, visual injury approx. 10 days after treatment; for Corn plant response rating: 500 g ai/ha, visual injury after approx. 10 days, 0 to 100 scale (0 no effect, 100 complete control)
How it was run: as §1

foxtail, giant [11] = experiment: Test A preemergence; type: in vivo, Setaria faberii; settings: preemergence; for Foxtail, Giant plant response rating (0 to 100 scale): 125 g ai/ha, visual injury approx. 10 days after treatment; for Foxtail, Giant plant response rating: 500 g ai/ha, visual injury after approx. 10 days, 0 to 100 scale (0 no effect, 100 complete control)
How it was run: as §1

ducksalad = experiment: Test B flood; type: in vivo, Heteranthera limosa; settings: 250 g ai/ha, visual rating on 0 to 100 scale (0 no effect, 100 complete control), 13 to 15 days
How it was run: as §2

morningglory [12] = experiment: Test A postemergence; type: in vivo, Ipomoea spp.
How it was run: as §1

sedge, umbrella = experiment: Test B flood; type: in vivo, Cyperus difformis; settings: 250 g ai/ha, visual rating on 0 to 100 scale (0 no effect, 100 complete control), 13 to 15 days
How it was run: as §2

crabgrass, large [13] = experiment: Test A preemergence; type: in vivo, Digitaria sanguinalis; settings: preemergence; for Crabgrass, Large plant response rating (0 to 100 scale): 125 g ai/ha, visual injury approx. 10 days after treatment; for Crabgrass, Large plant response rating: 500 g ai/ha, visual injury after approx. 10 days, 0 to 100 scale (0 no effect, 100 complete control)
How it was run: as §1

velvetleaf [14] = experiment: Test A postemergence; type: in vivo, Abutilon theophrasti
How it was run: as §1

crabgrass, large [15] = experiment: Test A postemergence; type: in vivo, Digitaria sanguinalis
How it was run: as §1

morningglory [16] = experiment: Test A preemergence; type: in vivo, Ipomoea spp.; settings: preemergence; for Morningglory plant response rating (0 to 100 scale): 125 g ai/ha, visual injury approx. 10 days after treatment; for Morningglory plant response rating: 500 g ai/ha, visual injury after approx. 10 days, 0 to 100 scale (0 no effect, 100 complete control)
How it was run: as §1

velvetleaf [17] = experiment: Test A preemergence; type: in vivo, Abutilon theophrasti; settings: preemergence; for Velvetleaf plant response rating (0 to 100 scale): 125 g ai/ha, visual injury approx. 10 days after treatment; for Velvetleaf plant response rating: 500 g ai/ha, visual injury after approx. 10 days, 0 to 100 scale (0 no effect, 100 complete control)
How it was run: as §1

[18] = 125 g ai/ha, visual injury, 0 to 100 scale, approx. 10 days
[19] = 500 g ai/ha, visual injury after approx. 10 days, 0 to 100 scale (0 no effect, 100 complete control)
[20] = Postemergence, 500 g ai/ha, 0 to 100 scale (0 no effect, 100 complete control)
[21] = postemergence, 125 g ai/ha, about 10 days, visual rating on 0 to 100 scale (0 no effect, 100 complete control)

Structure (SMILES)	Barnyardgrass plant response rating (barnyardgrass [1]; [19])	Wheat plant response rating (0 to 100 scale) (wheat [2])	Wheat plant response rating (wheat [2])	Pigweed plant response rating (pigweed [3]; [20])	Pigweed plant response rating (0 to 100 scale) (pigweed [4])	Pigweed plant response rating (pigweed [4])	Plant response rating, Rice (rice)	Corn plant response rating (corn [5]; [20])	Corn plant response rating (corn [5]; [21])	Plant response rating, Barnyardgrass (barnyardgrass [6])	Foxtail, Giant plant response rating (foxtail, giant [7]; [20])	Foxtail, Giant plant response rating (foxtail, giant [7]; [21])	Barnyardgrass plant response rating (barnyardgrass [8]; [20])	Barnyardgrass plant response rating (barnyardgrass [8]; [21])	Wheat plant response rating (wheat [9]; [20])	Corn plant response rating (0 to 100 scale) (corn [10])	Corn plant response rating (corn [10])	Foxtail, Giant plant response rating (0 to 100 scale) (foxtail, giant [11])	Foxtail, Giant plant response rating (foxtail, giant [11])	Plant response rating, Ducksalad (ducksalad)	also measured
O=C(NCC(F)(F)F)c1cc(Cl)n(Cc2cccc(C(F)(F)F)c2)n1 [Compound 170]	0	0	0	80	0	60	0	10	0	0	10	0	30	10	0	0	0	0	50	0	Barnyardgrass plant response rating (barnyardgrass [1]; [18]): 0; Pigweed plant response rating (pigweed [3]; [21]): 60; Wheat plant response rating (wheat [9]; [21]): 0; Morningglory plant response rating (morningglory [12]; [20]): 20; Morningglory plant response rating (morningglory [12]; [21]): 10; Plant response rating, Sedge, Umbrella (sedge, umbrella): 0; Crabgrass, Large plant response rating (0 to 100 scale) (crabgrass, large [13]): 10; Crabgrass, Large plant response rating (crabgrass, large [13]): 70; Velvetleaf plant response rating (velvetleaf [14]; [20]): 40; Velvetleaf plant response rating (velvetleaf [14]; [21]): 0; Crabgrass, Large plant response rating (crabgrass, large [15]; [20]): 30; Crabgrass, Large plant response rating (crabgrass, large [15]; [21]): 20; Morningglory plant response rating (0 to 100 scale) (morningglory [16]): 0; Morningglory plant response rating (morningglory [16]): 0; Velvetleaf plant response rating (0 to 100 scale) (velvetleaf [17]): 0; Velvetleaf plant response rating (velvetleaf [17]): 0
CCc1cc(C(=O)NC2CC2)nn1Cc1nnc(C(F)(F)F)o1 [Compound 172]	50	0	0	80	80	100	0	10	0	0	10	0	10	0	0	0	10	20	50	0	Barnyardgrass plant response rating (barnyardgrass [1]; [18]): 0; Pigweed plant response rating (pigweed [3]; [21]): 30; Wheat plant response rating (wheat [9]; [21]): 0; Morningglory plant response rating (morningglory [12]; [20]): 70; Morningglory plant response rating (morningglory [12]; [21]): 30; Plant response rating, Sedge, Umbrella (sedge, umbrella): 0; Crabgrass, Large plant response rating (0 to 100 scale) (crabgrass, large [13]): 50; Crabgrass, Large plant response rating (crabgrass, large [13]): 90; Velvetleaf plant response rating (velvetleaf [14]; [20]): 20; Velvetleaf plant response rating (velvetleaf [14]; [21]): 10; Crabgrass, Large plant response rating (crabgrass, large [15]; [20]): 20; Crabgrass, Large plant response rating (crabgrass, large [15]; [21]): 10; Morningglory plant response rating (0 to 100 scale) (morningglory [16]): 30; Morningglory plant response rating (morningglory [16]): 40; Velvetleaf plant response rating (0 to 100 scale) (velvetleaf [17]): 10; Velvetleaf plant response rating (velvetleaf [17]): 20
O=C(NC1CC1)c1cc(I)n(Cc2cccc(C(F)(F)F)c2)n1 [Compound 180]	40	0	0	100	10	100	0	0	0	0	30	10	30	0	0	0	0	10	90	0	Barnyardgrass plant response rating (0 to 100 scale, 0 is no effect, 100 is complete control) (barnyardgrass [1]; 125 g ai/ha): 0; Pigweed plant response rating (pigweed [3]; [21]): 70; Wheat plant response rating (wheat [9]; [21]): 0; Morningglory plant response rating (morningglory [12]; [20]): 80; Morningglory plant response rating (morningglory [12]; [21]): 0; Plant response rating, Sedge, Umbrella (sedge, umbrella): 0; Crabgrass, Large plant response rating (0 to 100 scale) (crabgrass, large [13]): 30; Crabgrass, Large plant response rating (crabgrass, large [13]): 100; Velvetleaf plant response rating (velvetleaf [14]; [20]): 30; Velvetleaf plant response rating (velvetleaf [14]; [21]): 0; Crabgrass, Large plant response rating (crabgrass, large [15]; [20]): 30; Crabgrass, Large plant response rating (crabgrass, large [15]; [21]): 10; Morningglory plant response rating (0 to 100 scale) (morningglory [16]): 0; Morningglory plant response rating (morningglory [16]): 0; Velvetleaf plant response rating (0 to 100 scale) (velvetleaf [17]): 0; Velvetleaf plant response rating (velvetleaf [17]): 0
CCCCNC(=O)c1cc(I)n(Cc2cccc(C(F)(F)F)c2)n1 [Compound 182]	0	0	0	90	0	30	0	20	0	0	20	0	30	20	0	0	0	0	50	0	Barnyardgrass plant response rating (0 to 100 scale, 0 is no effect, 100 is complete control) (barnyardgrass [1]; 125 g ai/ha): 0; Morningglory plant response rating (morningglory [12]; [20]): 30; Plant response rating, Sedge, Umbrella (sedge, umbrella): 0; Crabgrass, Large plant response rating (0 to 100 scale) (crabgrass, large [13]): 0; Crabgrass, Large plant response rating (crabgrass, large [13]): 60; Velvetleaf plant response rating (velvetleaf [14]; [20]): 70; Crabgrass, Large plant response rating (crabgrass, large [15]; [20]): 30; Crabgrass, Large plant response rating (crabgrass, large [15]; [21]): 10; Morningglory plant response rating (0 to 100 scale) (morningglory [16]): 0; Morningglory plant response rating (morningglory [16]): 0; Velvetleaf plant response rating (0 to 100 scale) (velvetleaf [17]): 0; Velvetleaf plant response rating (velvetleaf [17]): 0
